Source: US20210290648A1, “Potentiation of B-Lactam Antibiotics and B-Lactam/B-Lactamase Inhibitor Combinations Against Multidrug and Extensively Drug-Resistant Pseudomonas Aeruginosa Using Non-Ribosomal Tobramycin-Cyclam Conjugates” (University of Manitoba, priority 2018, published 2021)
Where two headings read alike, the source gives them in different places.

What was measured:
[1] = tested on: PA 100036; test: Checkerboard combination study / MIC; type: cell-based, Pseudomonas aeruginosa; details: for MICCombination (antibiotic): MIC of antibiotic combined with compound 2; for FICI: antibiotic + compound 2; for MICAntibiotic: antibiotic alone; for FICAntibiotic: with compound 2
[2] = tested on: PA 114228; test: Checkerboard combination study / MIC; type: cell-based, Pseudomonas aeruginosa; details: for MICCombination (antibiotic): MIC of antibiotic combined with compound 2; for FICI: antibiotic + compound 2; for MICAntibiotic: antibiotic alone
[3] = tested on: PA108590; test: MIC / triple combination susceptibility; type: cell-based, Pseudomonas aeruginosa
Excerpt: The diazabicyclooctane β-lactamase inhibitor, avibactam, is able to inhibit a wide range of serine β-lactamases (class A, C, and D) but not metallo-β-lactamases (class B) (50, 51).^50,51 However, the high concentration of avibactam required to neutralize the effects of β-lactamase enzymes in these phenotypes is indicative of concomitant permeability barriers in the isolates, such as reduced porin uptake. […] The results of this study are shown in (FIG. 6). All isolates were resistant to all three β-lactam antibiotics used for the study. […] As expected, the study with meropenem was slightly different from others.
Antimicrobial Susceptibility Assay. The in vitro antimicrobial activity of all compounds/antibiotics against a panel of bacteria was evaluated by microbroth dilution method in accordance with the Clinical and Laboratory Standards Institute (CLSI) guidelines. […]
Checkerboard Assay. […] After incubation, the plates were read on EMax® Plus microplate reader (Molecular Devices, Sunnyvale, Calif., USA) at 590 nm. MIC was recorded as wells with the lowest concentration of drugs with no bacterial growth. The fractional inhibitory concentration (FIC) for each antibiotic was calculated by dividing the MIC of the antibiotic in the presence of adjuvant by the MIC of the antibiotic alone. […]

[4] = tested on: PA 262; test: Checkerboard combination study / MIC; type: cell-based, Pseudomonas aeruginosa; details: for MICCombination (antibiotic): MIC of antibiotic combined with compound 2; for FICI: antibiotic + compound 2; for MICAntibiotic: antibiotic alone; for FICAntibiotic: with compound 2
[5] = tested on: MDR PA108590-challenged larvae; test: Galleria mellonella infection model, efficacy; type: in vivo
Excerpt: In vivo larvae-infection model.

[6] = tested on: MDR PA108590; test: Time-kill assay, triple combination; type: cell-based, Pseudomonas aeruginosa
[7] = tested on: wild type P. aeruginosa PAO1; test: Time-kill assay; type: cell-based, Pseudomonas aeruginosa; details: WT PAO1; for interaction with compound 2 in time-kill: 24 h; for time-kill effect, antibiotic alone: at MIC (aztreonam 4 μg/mL, meropenem 1 μg/mL)
Method: (§1) Time-kill curves typically reveal the kinetics of bacterial growth and death, with respect to time, at different antimicrobial concentrations. An antibiotic could either be bactericidal or bacteriostatic under specific growth conditions. Bactericidal activity is defined as a ≥3-log reduction in the total CFU/mL from the original inoculum over 24 hours while bacteriostatic activity is defined as maintenance of <3-log reduction in the total CFU/mL from the original inoculum (44). […] Growth curves were initially performed to ensure that strains will reach a stable early- to mid-log phase after 4 h of pre-incubation in antimicrobial-free LB medium.
(§2) Time-kill assay. Time-kill curve analyses were performed by culturing P. aeruginosa in LB medium, in the presence of antibiotics alone and in combination with test adjuvants. MICs of antibiotics and adjuvants were determined before the experiment following CLSI microbroth dilution guidelines. Growth curves were initially performed to confirm that all strains will reach a stable early- to mid-log phase after 4 h of pre-incubation in antimicrobial-free LB medium. A 0.5 McFarland inoculum of each strain was prepared in sterile 0.85% saline solution from an overnight grown culture. For each strain, 30 μl of the prepared inoculum was diluted to 3 ml of LB broth (containing different combinations of antimicrobial agents and adjuvants) and incubated at 37° C. shaking at 250 rpm. At specific time intervals (0, 1, 3, 6, 9, and 24 h), 100 μl was taken from each sample, serially diluted in sterile PBS, plated on LB agar plates, and incubated at 37° C. in a humid 5% CO2-enriched atmosphere. Bacteria colonies were counted after 20 h of incubation.

[8] = tested on: MDR PA101885; test: Time-kill assay; type: cell-based, Pseudomonas aeruginosa; details: for interaction with compound 2 in time-kill: 24 h; for time-kill effect, antibiotic + compound 2: CLSI breakpoint concentration + 4.4 μM or 8.7 μM compound 2, after about 6 h; for time-kill effect, antibiotic alone: at CLSI breakpoint concentration (aztreonam 8 μg/mL, meropenem 2 μg/mL)
Method: as §1, §2

[9] = tested on: WT P. aeruginosa PAO1; test: Checkerboard combination study / MIC; type: cell-based, Pseudomonas aeruginosa; details: for MIC: Pseudomonas aeruginosa; for FICI in the presence of ≤10 μM of 1: antibiotic + compound 1; for FICI in the presence of ≤10 μM of 1 / MIC of Antibiotics in the presence of ≤10 μM of 1 / FICI in the presence of ≤10 μM of 2 / MIC of Antibiotics in the presence of ≤10 μM of 2 / FICI in the presence of ≤10 μM of 3 / MIC of Antibiotics in the presence of ≤10 μM of 3: WT PAO1; for MIC of Antibiotics in the presence of ≤10 μM of 1: antibiotic + compound 1 ≤10 μM; for FICI in the presence of ≤10 μM of 2: antibiotic + compound 2; for MIC of Antibiotics in the presence of ≤10 μM of 2: antibiotic + compound 2 ≤10 μM; for FICI in the presence of ≤10 μM of 3: antibiotic + compound 3; for MIC of Antibiotics in the presence of ≤10 μM of 3: antibiotic + compound 3 ≤10 μM; for MIC of antibiotic alone in PAO1: PAO1 wild-type (Table 4)
[10] = PAO1, 18 h, antibiotic alone, WT PAO1 (Table 2), read-out: MIC alone
[11] = PAO1, time-kill study text and FIG. 7 legend, read-out: MIC against WT PAO1

5-O-(Octylcyclam)-tobramycin.9TFA [Compound 2]
MICCombination (2) ([1]; MIC of 2 combined with AZT): 8 µg/mL | MICCombination (2) ([1]; MIC of 2 combined with CAZ): 8 µg/mL | MICCombination (2) ([1]; MIC of 2 combined with CEF): 16 µg/mL | MICCombination (2) ([1]; MIC of 2 combined with DOR): 16 µg/mL | MICCombination (2) ([1]; MIC of 2 combined with MER): 2 µg/mL | MICCombination (2) ([1]; MIC of 2 combined with PIP): 16 µg/mL | FIC2 ([1]; with AZT): <0.0313 | FIC2 ([1]; with CAZ): <0.0313 | FIC2 ([1]; with CEF): <0.0625 | FIC2 ([1]; with DOR): <0.0625 | FIC2 ([1]; with MER): <0.0078 | FIC2 ([1]; with PIP): <0.0625 | MICCombination (2) ([2]; MIC of 2 combined with AZT): 4 µg/mL | MICCombination (2) ([2]; MIC of 2 combined with CAZ): 16 µg/mL | MICCombination (2) ([2]; MIC of 2 combined with CEF): 4 µg/mL | MICCombination (2) ([2]; MIC of 2 combined with DOR): 4 µg/mL | MICCombination (2) ([2]; MIC of 2 combined with MER): 8 µg/mL | MICCombination (2) ([2]; MIC of 2 combined with PIP): 0.5 µg/mL | FIC2 ([2]; with AZT): <0.0156 | FIC2 ([2]; with CAZ): <0.0625 | FIC2 ([2]; with CEF): <0.0156 | FIC2 ([2]; with DOR): <0.0156 | FIC2 ([2]; with MER): <0.0313 | FIC2 ([2]; with PIP): <0.0020 | potentiation of all three β-lactam antibiotics ([3]; triple combination with avibactam and compound 2 (8 μM each), ceftazidime, aztreonam, meropenem): 128 fold | MICCombination (2) ([4]; MIC of 2 combined with AZT): 8 µg/mL | MICCombination (2) ([4]; MIC of 2 combined with CAZ): 16 µg/mL | MICCombination (2) ([4]; MIC of 2 combined with CEF): 16 µg/mL | MICCombination (2) ([4]; MIC of 2 combined with DOR): 16 µg/mL | MICCombination (2) ([4]; MIC of 2 combined with MER): 16 µg/mL | MICCombination (2) ([4]; MIC of 2 combined with PIP): 4 µg/mL | FIC2 ([4]; with AZT): <0.0313 | FIC2 ([4]; with CAZ): <0.0625 | FIC2 ([4]; with CEF): <0.0625 | FIC2 ([4]; with DOR): <0.0625 | FIC2 ([4]; with MER): <0.0625 | FIC2 ([4]; with PIP): <0.0156 | survival of larvae ([5]; ceftazidime+avibactam+compound 2, 1.56+1.56+3.12 mg/kg, after 24 h): 100% | survival of larvae ([5]; ceftazidime+avibactam+compound 2, 1.56+1.56+3.12 mg/kg, after 36 h): 95% | bacterial counts lower than ceftazidime+avibactam ([6]; ceftazidime + avibactam + compound 2, after 3 h): > 2 Log | time to sterilization of bacteria culture ([6]; triple combination ceftazidime + avibactam + compound 2, limit of detection 10 CFU/mL): ≤ 3 h | reduction in total CFU/mL from original inoculum ([6]; triple combination ceftazidime + avibactam + compound 2, within 3 h): 6 Log

C[C@H]1[C@H](NC(=O)/C(=N\OC(C)(C)C(=O)O)c2csc(N)n2)C(=O)N1S(=O)(=O)O [Aztreonam]
MICCombination (antibiotic) [1]: 2 µg/mL | FICI [1]: <0.16 | MICAntibiotic [1]: 16 µg/mL | interaction with compound 2 in time-kill [7]: synergistic | time-kill effect, antibiotic alone [7]: time-dependent bactericidal effect | interaction with compound 2 in time-kill [8]: synergistic | time-kill effect, antibiotic + compound 2 [8]: strongly bactericidal | time-kill effect, antibiotic alone [8]: bacteriostatic effect | MIC of antibiotic + Compound 2 in PAO1 ([9]; + compound 2 ≤8.7 μM, PAO1): 0.25 µg/mL | MIC [9, 10]: 4 µg/mL | MIC ([9]; PAO1, FIG. 7 legend, read-out: MIC against WT PAO1): 0.004 µg/mL | MIC [9, 11]: 4 µg/mL | FICI in the presence of ≤10 μM of 1 [9]: 0.13 | MIC of Antibiotics in the presence of ≤10 μM of 1 [9]: 0.5 µg/mL | FICI in the presence of ≤10 μM of 2 [9]: 0.07 | MIC of Antibiotics in the presence of ≤10 μM of 2 [9]: 0.25 µg/mL | FICI in the presence of ≤10 μM of 3 [9]: 0.14 | MIC of Antibiotics in the presence of ≤10 μM of 3 [9]: 0.5 µg/mL | MIC of antibiotic alone in PAO1 ([9]; antibiotic alone): 4 µg/mL

CC(C)(O/N=C(\C(=O)N[C@@H]1C(=O)N2C(C(=O)[O-])=C(C[n+]3ccccc3)CS[C@H]12)c1csc(N)n1)C(=O)O [Ceftazidime]
MICCombination (antibiotic) [1]: 2 µg/mL | FICI [1]: <0.28 | MICAntibiotic [1]: 8 µg/mL | FICAntibiotic [1]: 0.250 | MICCombination (antibiotic) [2]: 1 µg/mL | FICI [2]: <0.19 | MICAntibiotic [2]: 8 µg/mL | MIC of antibiotic + Compound 2 in PAO1 ([9]; + compound 2 ≤8.7 μM, PAO1): 0.5 µg/mL | MIC ([9]; PAO1, antibiotic alone, WT PAO1 (Table 2), read-out: MIC alone): 2 µg/mL | FICI in the presence of ≤10 μM of 1 [9]: 0.25 | MIC of Antibiotics in the presence of ≤10 μM of 1 [9]: 0.5 µg/mL | FICI in the presence of ≤10 μM of 2 [9]: 0.13 | MIC of Antibiotics in the presence of ≤10 μM of 2 [9]: 0.25 µg/mL | FICI in the presence of ≤10 μM of 3 [9]: 0.25 | MIC of Antibiotics in the presence of ≤10 μM of 3 [9]: 0.5 µg/mL | MIC of antibiotic alone in PAO1 ([9]; antibiotic alone): 4 µg/mL | MIC ([3]; Pseudomonas aeruginosa, P. aeruginosa 108590, FIG. 8 legend): 0.032 µg/mL | MICCombination (antibiotic) [4]: 4 µg/mL | FICI [4]: <0.31 | MICAntibiotic [4]: 16 µg/mL | FICAntibiotic [4]: 0.250 | survival of larvae ([5]; ceftazidime 1.56 mg/kg single dose, after 24 h): 50% | survival of larvae ([5]; ceftazidime 1.56 mg/kg single dose, after 36 h): 10% | time-kill effect, alone ([6]; 16 μg/mL, i.e. half MIC, MDR PA108590): bactericidal effects after 3 h

C[C@@H](O)[C@H]1C(=O)N2C(C(=O)O)=C(S[C@@H]3CN[C@H](C(=O)N(C)C)C3)[C@H](C)[C@H]12 [Meropenem]
MICCombination (antibiotic) [1]: 2 µg/mL | FICI [1]: <0.51 | MICAntibiotic [1]: 4 µg/mL | FICAntibiotic [1]: 0.500 | MICCombination (antibiotic) [2]: 2 µg/mL | FICI [2]: <0.28 | MICAntibiotic [2]: 8 µg/mL | FICAntibiotic ([2]; with compound 2): 0.250 | interaction with compound 2 in time-kill [7]: indifferent | time-kill effect, antibiotic alone [7]: time-dependent bactericidal effect | interaction with compound 2 in time-kill [8]: synergistic | time-kill effect, antibiotic + compound 2 [8]: strongly bactericidal | time-kill effect, antibiotic alone [8]: bacteriostatic effect | MIC of antibiotic + Compound 2 in PAO1 ([9]; + compound 2 ≤8.7 μM, PAO1): 0.25 µg/mL | fold change of MIC + Compound 2 in PAO1 ([9]; + compound 2 ≤8.7 μM, PAO1): 4 | MIC [9, 10]: 1 µg/mL | MIC [9, 11]: 1 µg/mL | FICI in the presence of ≤10 μM of 1 [9]: 0.25 (0.25) | MIC of Antibiotics in the presence of ≤10 μM of 1 [9]: 0.25 (0.25) μg/ml | FICI in the presence of ≤10 μM of 2 [9]: 0.26 | MIC of Antibiotics in the presence of ≤10 μM of 2 [9]: 0.25 µg/mL | FICI in the presence of ≤10 μM of 3 [9]: 0.50 | MIC of Antibiotics in the presence of ≤10 μM of 3 [9]: 0.5 µg/mL | MIC of antibiotic alone in PAO1 ([9]; antibiotic alone): 1 µg/mL | MICCombination (antibiotic) [4]: 2 µg/mL | FICI [4]: <0.13 | MICAntibiotic [4]: 32 µg/mL | FICAntibiotic [4]: 0.063
